| melting point [°C] | Compound |
| --- | --- |
| 78 | CCN(CC)C(=S)n1cnc(S(=O)(=O)CC2CCCC2)n1 |
| 198 to 200 | O=C(Cc1ccsc1)N[C@H]1C[C@H](C(=O)O)Nc2cc(Cl)cc(Cl)c21 (relative stereo) |
| 227 | O=C(Nc1ccc(C(=O)NCCCN2CCOCC2)cc1O)C(=O)Nc1cc(Cl)cc(Cl)c1O |
| 180 to 181 | O=C(Nc1ccccc1C(F)(F)F)c1cc(-c2ccc(F)cc2F)ccc1O |
| 154 to 155 | CC1(C)OC(c2ccc(S(C)(=O)=O)c(Br)c2)=C(c2ccccc2)C1=O |
| 142 to 143 | CCCCOc1c(CNC(=O)OC(C)(C)C)n(CC(C)C)c(=O)c2ccc(C(=O)N(C)OC)cc12 |
| 114 to 116 | CC(O)c1cc(I)c(O)c(Cl)n1 (stereo unspecified) |
| 220 to 221 | Clc1ccc2cc3ccccc3cc2c1 |
| 230 to 233 | ON=C(c1ccccc1)c1ccc(C(=NO)c2ccccc2)cc1 |
| 236 to 241 | Cc1nn(C)c(O)c1C(=O)c1ccc(S(C)(=O)=O)c(-c2cnco2)c1Cl |
| 117 to 118 | COc1ccc(OC)c2c1C(=O)C=C(SCCO)C2=O |
| 214 to 216 | NS(=O)(=O)c1cccc2c1SCC=C2 |
| 162 to 166 | Cc1c(CN2CCc3c(c4cccc(F)c4n3C)C2=O)ncn1S(=O)(=O)N(C)C |
| 77 | CC(C)(C)c1cc(CC(C)(C)C2OCCS2)cc(C(C)(C)C)c1O (stereo unspecified) |
| 98 to 100 | CC(C)c1ccc2oc(C(O)COc3ccc(CO)cc3)cc2c1 (stereo unspecified) |
| 135 to 137 | CC(C)C(=O)N[C@H](CSSC[C@@H](NC(=O)C(C)C)C(=O)O)C(=O)O |

More lines, now with the values behind:

| Compound | melting point [°C] |
| --- | --- |
| COc1cccc(CO)c1OCc1ccccc1 | 58 to 60 |
| COc1cc(Cl)c(C=O)c(Cl)c1 | 107 to 109 |
| CC(=O)c1ccc(-c2ccc(Br)cc2)c(Br)c1 | 82.5 to 84.5 |
| COc1cc2c(c(C(C)C)c1OC)CC(C)C(Br)=C2 (stereo unspecified) | 71 to 72 |
| C/C(=C\c1ccc(OC(C)C)cc1Oc1ncc(C(F)(F)F)cc1Cl)C(=O)O | 114 |
| CC(C)c1nc(CO)n(C)c1Sc1cc(Cl)cc(Cl)c1 | 157 to 158 |
| COC(=O)c1cc(C=O)c(C(F)(F)F)cc1NC(C)=O | 106 to 108 |
| O=C(O)/C=C(\CC(O)CCCCCCc1ccc(Cl)cc1Cl)C(=O)O (stereo unspecified) | 92 to 93 |
| NNC(=O)c1cc2c(Oc3ccc(Cl)cc3)cncc2s1 | 197 to 199 |
| Cc1ccc(-c2ncncc2Br)cc1 | 81 to 82 |
| O=C(CCC(=O)N1CCC[C@H]1C(=O)O)c1ccc(F)cc1 | 127 to 129 |
| CN(C)c1ccc(Pc2ccc(N(C)C)cc2)cc1 | 80 to 90 |
| CCN1CCN(CC)c2cc(Nc3nc(Cl)ncc3Cl)ccc2C1 | 69 to 73 |
| CCCCc1ccc(Nc2cc(C)nc3ccc(OC)cc23)cc1 | 200 to 201 |
| CC(C)(C)C(Cl)=NNc1ccc(Cl)cc1 | 42 to 43 |
| CCOC(=O)C1=C(C)NC(COCCN2C(=O)c3ccccc3C2=O)=C(C(=O)OCC)C1c1ccccc1Cl (stereo unspecified) | 142 to 144 |
| O=CN1CCN(c2nc3cccc4c3n2CCC4)CC1 | 138 to 139 |
| O=C(O)C(=O)c1c(Cl)cc(OCCOc2ccc3ccccc3c2)cc1Cl | 155 to 156 |
| C#Cc1ccnc(-c2ccc(Br)cc2[N+](=O)[O-])c1 | 166 to 171 |
| O=C(C=P(c1ccccc1)(c1ccccc1)c1ccccc1)COc1ccccc1Cl | 107 to 109 |
| CC(C)(C)OC(=O)N1CCC(COc2ccc(N)cc2)CC1 | 100 to 101 |
| CC1CC2C3CCC4=CC(=O)C=CC4(C)C3=CCC2(C)C1C(=O)CN1CCN(c2cc(NC3CCCC3)nc(NC3CCCC3)n2)CC1 (stereo unspecified) | 180 to 185 |
| O=C(O)c1ccc(C=Cc2cc(=O)c3cc(Br)ccc3o2)cc1 | 359 to 362 |
| Cc1cnc(C)c(N(CCN(C)C)C(=O)N(C)C)n1 | 96 to 98 |
| Cc1cccc(NC(=O)C2=C(O)c3ccc4ccccc4c3S(=O)(=O)N2C)n1 | 221 to 223 |
